{
  "source": "patent US11260096B2",
  "about": "“Compositions for creatine supplementation in creatine non-responders” (ThermoLife International, LLC, priority 2019, dated 2022)",
  "key": {"[1]": {"test": "5-day intervention: liver enzymes and estimated glomerular filtration rate (safety biomarkers)", "format": "in vivo, human", "description": "(§1) Ten healthy young men (age 23.6±2.9 years, body mass index 23.8±1.5 kg/m′) were recruited and signed informed consent to voluntarily participate in this double-blind, crossover, randomized controlled trial. All experimental procedures were approved by the local institutional review board, and the study was conducted in accordance with the Declaration of Helsinki. All participants had no history of creatine supplementation (or other dietary supplements) within the 4 weeks before the study commenced. All participants also had no acute or chronic diseases as evaluated by pre-participation health check and blood profiles. All participants were required to maintain their normal activity patterns and diet during the study. The participants were required to not engaged in any exhaustive exercise 24 hours before the study commenced.\nWashout period of 7 days was employed between all trials to prevent the residual or carry-over effects of treatments across study periods. For the single-dose experiment, participants were administered a liquid composition that was prepared by a researcher by dissolving a powder of their respective treatment compounds in 150 mL of lukewarm water. For the 5-day intervention, the participants received five powder sachets (one per day) containing an treatment compounds. The participants were advised to stir the content of the sachet into 150 mL of lukewarm water until the powder has dissolved and to drink the liquid composition about 30 minutes before breakfast. […] Creatinine anhydrous has been produced from creatine monohydrate in an autoclave (Memmert UF 55, Schwabach, Germany) at 160° C. for 72 hours, with creatinine purity>99% in a final powder, as determined by NMR spectroscopy (Bruker Avance III 400, Billerica, Mass.). […] Venous blood samples were drawn at each time point (7 points in total) for a single-dose experiment, and serum analyzed for creatine and creatinine by modified LC-MS/MS (1200 Series LC System; Agilent Technologies Inc., Santa Clara, Calif., USA). […] For 5-day experiment, venous blood samples were drawn at baseline and at the various follow-up times, with serum analyzed for liver enzymes by an automated analyzer (Randox Laboratories Ltd., Crumlin, UK).\nEstimated glomerular filtration rate (eGFR) was calculated by the abbreviated MDRD equation (Stevens et al., Am J Kidney Dis. 2007; 50: 21-35). […] In vivo metabolite concentrations were calculated using the muscle water signal as an internal intensity reference (Wang et al., J Magn Reson. 2014, 243: 81-84). […] The peak integral values of the total creatine (creatine plus phosphocreatine) signal at 3.0 ppm and the non-suppressed water signal at 4.7 ppm were quantified using curve-fitting to Gaussian lines. […]"}, "[2]": {"test": "5-day intervention: total muscle creatine by proton magnetic resonance spectroscopy (MRS)", "format": "in vivo, human", "details": "after five-day intervention vs baseline", "description": "as §1, with “The participants were required to not engaged in any exhaustive exercise 24 hours before the study commenced.” left out\nWashout period of 7 days was employed between all trials to prevent the residual or carry-over effects of treatments across study periods. […] Creatinine anhydrous has been produced from creatine monohydrate in an autoclave (Memmert UF 55, Schwabach, Germany) at 160° C. for 72 hours, with creatinine purity>99% in a final powder, as determined by NMR spectroscopy (Bruker Avance III 400, Billerica, Mass.). […] Venous blood samples were drawn at each time point (7 points in total) for a single-dose experiment, and serum analyzed for creatine and creatinine by modified LC-MS/MS (1200 Series LC System; Agilent Technologies Inc., Santa Clara, Calif., USA). […]"}, "[3]": {"test": "single-dose pharmacokinetics experiment: serum creatine and creatinine by LC-MS/MS", "format": "in vivo, human", "details": "for AUC (serum creatine) after single-dose intervention: linear-log trapezoidal method", "description": "as §1\nWashout period of 7 days was employed between all trials to prevent the residual or carry-over effects of treatments across study periods. For the single-dose experiment, participants were administered a liquid composition that was prepared by a researcher by dissolving a powder of their respective treatment compounds in 150 mL of lukewarm water. For the 5-day intervention, the participants received five powder sachets (one per day) containing an treatment compounds. The participants were advised to stir the content of the sachet into 150 mL of lukewarm water until the powder has dissolved and to drink the liquid composition about 30 minutes before breakfast. […] Clinical assessments for both experiments were carried out between 08:00 and 12:00 after an overnight fast of 12 hours. Venous blood samples were drawn at each time point (7 points in total) for a single-dose experiment, and serum analyzed for creatine and creatinine by modified LC-MS/MS (1200 Series LC System; Agilent Technologies Inc., Santa Clara, Calif., USA). To control for variance based on different hydration levels, all participants were restricted from water ingestion between the time of collecting the baseline sample and 120 minutes after administration of the treatment. For 5-day experiment, venous blood samples were drawn at baseline and at the various follow-up times, with serum analyzed for liver enzymes by an automated analyzer (Randox Laboratories Ltd., Crumlin, UK).\nWhere significant differences were found, the Tukey post-hoc test was employed to identify the differences. The area under the concentration-time curve (AUC) for serum creatine and creatinine were calculated using the linear-log trapezoidal method, with AUCs compared with one-way ANOVA. The significance level was set at P<0.05. Data were analyzed using the SPSS program (SPSS Inc., Chicago, Ill., USA)."}, "[4]": {"test": "adverse events evaluated via open-ended questionnaires", "format": "in vivo, human", "details": "5-day intervention, single participants", "description": "Estimated glomerular filtration rate (eGFR) was calculated by the abbreviated MDRD equation (Stevens et al., Am J Kidney Dis. 2007; 50: 21-35). […] Twelve datasets were obtained for each individual yielding a total of 120 spectra in this study. In vivo metabolite concentrations were calculated using the muscle water signal as an internal intensity reference (Wang et al., J Magn Reson. 2014, 243: 81-84). The spectra were fitted in the time domain using a nonlinear least squares algorithm ([…]) in the Java-based magnetic resonance user interface (jMRUI) software package. […] Finally, possible adverse events of the intervention (e.g. muscle cramps, bloating, diarrhea) were evaluated via open-ended questionnaires administered during the trial."}, "[5]": {"details": "cited from earlier work"}},
  "note": "Several values for one entry are separate records, joined by “and”; a condition that tells them apart may be missing. Identical values can stand only once. Entries after “also recorded” stand apart in the source; their conditions may differ.",
  "data": [
    {"smiles": "CN(CC(=O)O)C(=N)N.O=[N+]([O-])O", "note": "[CN, creatine nitrate]", "values": [
      {"measurement": "participants with mildly reduced kidney function (eGFR 60-89 mL/min/1.73 m^2)", "setting": "[1]; 5-day intervention, n=10", "result": 40.0, "unit": "%"},
      {"measurement": "eGFR", "setting": "[1]; at 5-day follow-up, mean ± SD, abbreviated MDRD equation", "result": "89.8 ± 8.1", "unit": "mL/min/1.73 m^2"},
      {"measurement": "average increase in total muscle creatine levels", "setting": "[2]", "result": 8.0, "unit": "%"},
      {"measurement": "concentration at 60 min", "setting": "[3]; male, human, in vivo, single oral dose (3 g CN + 3 g creatinine, 3 g CN or 3 g CRM), peak time, n=10 healthy men, read-out: average serum creatine concentration at 60 minutes post-administration", "result": "164 ± 12.9", "unit": "µM"},
      {"measurement": "change in serum creatinine during the single-dose study (in words)", "setting": "[3]; single oral dose", "result": "remained essentially unchanged"},
      {"measurement": "AUC (serum creatine) after single-dose intervention", "setting": "[3]; single oral dose", "result": "622.7 ± 62.9", "unit": "µmol·min/L"},
      {"measurement": "reported side effects / adverse events (in words)", "setting": "[4]; nitrate", "result": "irregular non-diarrheal bowel movements; also recorded: excessive sleepiness"}
    ]},
    {"smiles": "CN(CC(=O)O)C(=N)N.O", "note": "[CRM, creatine monohydrate]", "values": [
      {"measurement": "increase of total creatine content in skeletal muscles", "setting": "[5]; dosages up to 30 g for a few days, human subject", "result": "more than 20%"},
      {"measurement": "eGFR", "setting": "[1]; in vivo", "result": "91.7 ± 8.3", "unit": "mL/min/1.73 m^2"},
      {"measurement": "participants with mildly reduced kidney function (eGFR 60-89 mL/min/1.73 m^2)", "setting": "[1]; in vivo", "result": 30.0, "unit": "%"},
      {"measurement": "average increase in total muscle creatine levels", "setting": "[2]", "result": 2.1, "unit": "%"},
      {"measurement": "AUC for serum creatinine", "setting": "[3]; single oral dose", "result": "607.5 ± 37.7", "unit": "µmol·min/L"},
      {"measurement": "change in serum creatinine during the single-dose study (in words)", "setting": "[3]; single oral dose", "result": "remained essentially unchanged"},
      {"measurement": "AUC (serum creatine) after single-dose intervention", "setting": "[3]; single oral dose", "result": "466.3 ± 47.9", "unit": "µmol·min/L"},
      {"measurement": "reported side effects / adverse events (in words)", "setting": "[4]", "result": "episodes of bloating"}
    ]},
    {"smiles": "CN(CC(=O)O)C(=N)N", "note": "[creatine]", "values": [
      {"measurement": "individuals who do not respond to creatine supplementation (prevalence of non-responders)", "setting": "[5]; less than 10 mmol/kg dw increase in resting total muscle creatine after five days at 20 g/day", "result": "about 25% and 20-30%"}
    ]}
  ]
}
